Results from PubChem BioAssay (NCI).
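Growth conditions: 96-well plates. Treatment: test compound, 48 hours, 5 concentrations. Analysis: linear interpolation between bracketing concentrations; unreached endpoints set to highest concentration. Here, GI50 denotes the concentration required for 50% inhibition of growth. TGI: total growth inhibition.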

Experiments:
Assay in all cases: inhibition of tumour cell growth, NCI panel, 48 h
[1] = tested on: COLO 205 colon
[2] = tested on: HCC-2998 colon
[3] = tested on: SF-268 CNS
[4] = tested on: ACHN renal
[5] = tested on: SN12C renal
[6] = tested on: PC-3 prostate
[7] = tested on: HCT-15 colon
[8] = tested on: MCF7 breast
[9] = tested on: 786-0 renal
[10] = tested on: NCI-H23 lung
[11] = tested on: SF-539 CNS
[12] = tested on: UACC-62 melanoma
[13] = tested on: MDA-MB-231 breast
[14] = tested on: RXF 393 renal
[15] = tested on: NCI-H460 lung
[16] = tested on: NCI/ADR-RES ovarian
[17] = tested on: SNB-75 CNS
[18] = tested on: UACC-257 melanoma
[19] = tested on: K-562 leukemia
[20] = tested on: HL-60(TB) leukemia
[21] = tested on: CAKI-1 renal
[22] = tested on: RPMI-8226 leukemia
[23] = tested on: OVCAR-5 ovarian
[24] = tested on: HCT-116 colon
[25] = tested on: OVCAR-3 ovarian
[26] = tested on: EKVX NSCLC
[27] = tested on: IGROV1 ovarian
[28] = tested on: SK-MEL-28 melanoma
[29] = tested on: A549 NSCLC
[30] = tested on: OVCAR-8 ovarian
[31] = tested on: M14 melanoma
[32] = tested on: SW-620 colon
[33] = tested on: MDA-MB-435
[34] = tested on: DU-145 prostate
[35] = tested on: SK-MEL-2 melanoma
[36] = tested on: CCRF-CEM leukemia
[37] = tested on: TK-10 renal
[38] = tested on: SK-OV-3 ovarian
[39] = tested on: SR leukemia
[40] = tested on: BT-549 breast
[41] = tested on: U251 CNS
[42] = tested on: MALME-3M melanoma
[43] = tested on: UO-31 renal
[44] = tested on: HT29 colon
[45] = tested on: T-47D breast
[46] = tested on: KM12 colon
[47] = tested on: SNB-19 CNS
[48] = tested on: MOLT-4 leukemia
[49] = tested on: HS 578T breast
[50] = tested on: HOP-62 NSCLC
[51] = tested on: A498 renal
[52] = tested on: NCI-H522 lung
[53] = tested on: OVCAR-4 ovarian
[54] = tested on: LOX IMVI melanoma
[55] = tested on: SF-295 CNS
[56] = tested on: NCI-H226 lung
[57] = tested on: SK-MEL-5 melanoma

In the case of `COc1cc2nc(SCC(=O)Nc3cc(OC)c(OC)c(OC)c3)n(Cc3ccccc3)c(=O)c2cc1OC`, the GI50 [1] is reported as 15.3 µM, the TGI [1] is reported as 33 µM and the GI50 [2] is reported as 50.6 µM. For the same molecule, the TGI [2] was over 100 µM, the GI50 [3] was 3.57 µM and the TGI [3] was 23.2 µM. The GI50 [4] was 4.63 µM, the TGI [4] was over 100 µM and the GI50 [5] was 4.7 µM. The TGI [5] was over 100 µM, the GI50 [6] was 3.2 µM and the TGI [6] was over 100 µM. It also gave a GI50 [7] of over 100 µM, a TGI [7] of over 100 µM and a GI50 [8] of 7.93 µM. It also gave a TGI [8] of over 100 µM, a GI50 [9] of 3.51 µM and a TGI [9] of 17.6 µM. For the same molecule, the GI50 [10] was 4.17 µM, the TGI [10] was 50.3 µM and the GI50 [11] was 2.37 µM. For the same molecule, the TGI [11] was 5.78 µM, the GI50 [12] was 2.35 µM and the TGI [12] was 6.82 µM. The GI50 [13] was 3.73 µM, the TGI [13] was 37.8 µM and the GI50 [14] was 2.55 µM. For the same molecule, the TGI [14] was 8.35 µM, the GI50 [15] was 6.72 µM and the TGI [15] was over 100 µM. It also gave a GI50 [16] of 3.3 µM, a TGI [16] of 11.6 µM and a GI50 [17] of 1.57 µM. It also gave a TGI [17] of 3.38 µM, a GI50 [18] of 3.55 µM and a TGI [18] of over 100 µM. For the same molecule, the GI50 [19] was over 100 µM, the TGI [19] was over 100 µM and the GI50 [20] was over 100 µM. For the same molecule, the TGI [20] was over 100 µM, the GI50 [21] was 3.05 µM and the TGI [21] was 28.8 µM. It also gave a GI50 [22] of over 100 µM, a TGI [22] of over 100 µM and a GI50 [23] of over 100 µM. For the same molecule, the TGI [23] was over 100 µM, the GI50 [24] was 6.74 µM and the TGI [24] was 78.9 µM. The GI50 [25] was 7.68 µM, the TGI [25] was 50.3 µM and the GI50 [26] was 5.12 µM. For the same molecule, the TGI [26] was 31.1 µM, the GI50 [27] was 7.34 µM and the TGI [27] was over 100 µM. It also gave a GI50 [28] of 3.02 µM, a TGI [28] of 11.4 µM and a GI50 [29] of 5.13 µM. The TGI [29] was over 100 µM, the GI50 [30] was 3.46 µM and the TGI [30] was 34.9 µM. It also gave a GI50 [31] of 16.1 µM, a TGI [31] of over 100 µM and a GI50 [32] of over 100 µM. It also gave a TGI [32] of over 100 µM, a GI50 [33] of 4.91 µM and a TGI [33] of over 100 µM. The GI50 [34] was 7.44 µM, the TGI [34] was over 100 µM and the GI50 [35] was 3.41 µM. It also gave a TGI [35] of 10.6 µM, a GI50 [36] of over 100 µM and a TGI [36] of over 100 µM. The GI50 [37] was 4.06 µM, the TGI [37] was 21.5 µM and the GI50 [38] was 2.91 µM. It also gave a TGI [38] of 7.26 µM, a GI50 [39] of 40.9 µM and a TGI [39] of over 100 µM. It also gave a GI50 [40] of 2.02 µM, a TGI [40] of 5.61 µM and a GI50 [41] of 3.18 µM. The TGI [41] was 11.2 µM, the GI50 [42] was 3.3 µM and the TGI [42] was over 100 µM. The GI50 [43] was 1.95 µM, the TGI [43] was 8.85 µM and the GI50 [44] was 16.6 µM. For the same molecule, the TGI [44] was 38.7 µM, the GI50 [45] was 6.57 µM and the TGI [45] was over 100 µM. For the same molecule, the GI50 [46] was over 100 µM, the TGI [46] was over 100 µM and the GI50 [47] was 2.92 µM. For the same molecule, the TGI [47] was 18.1 µM, the GI50 [48] was over 100 µM and the TGI [48] was over 100 µM. For the same molecule, the GI50 [49] was 2.46 µM, the TGI [49] was 9.45 µM and the GI50 [50] was 2.03 µM. The TGI [50] was 4.28 µM, the GI50 [51] was 1.75 µM and the TGI [51] was 32.5 µM. It also gave a GI50 [52] of 3.65 µM, a TGI [52] of 32.4 µM and a GI50 [53] of 2.11 µM. For the same molecule, the TGI [53] was 5.56 µM, the GI50 [54] was 4.71 µM and the TGI [54] was over 100 µM.

In the case of `Oc1ccc(O)c(-c2cn3ccsc3n2)c1`, the GI50 [1] is reported as 21.4 µM, the TGI [1] is reported as 48.2 µM and the GI50 [2] is reported as 16.5 µM. The TGI [2] was 31.1 µM, the GI50 [3] was 14.4 µM and the TGI [3] was over 100 µM. The GI50 [4] was 12.7 µM, the TGI [4] was 25.3 µM and the GI50 [5] was 12.2 µM. It also gave a TGI [5] of 26.9 µM, a GI50 [55] of 13.6 µM and a TGI [55] of 51.2 µM. It also gave a GI50 [6] of 10.1 µM, a TGI [6] of 21.7 µM and a GI50 [7] of 12.3 µM. It also gave a TGI [7] of 24.7 µM, a GI50 [8] of 5.5 µM and a TGI [8] of 27.2 µM. The GI50 [9] was 4.04 µM, the TGI [9] was 15 µM and the GI50 [10] was 16.9 µM. For the same molecule, the TGI [10] was 64.3 µM, the GI50 [12] was 10.8 µM and the TGI [12] was 29.9 µM. For the same molecule, the GI50 [13] was 11.7 µM, the TGI [13] was 33.7 µM and the GI50 [14] was 14.5 µM. For the same molecule, the TGI [14] was 29.6 µM, the GI50 [15] was 13.6 µM and the TGI [15] was 31.4 µM. It also gave a GI50 [16] of 12.9 µM, a TGI [16] of 25.5 µM and a GI50 [18] of 24.3 µM. The TGI [18] was 50.3 µM, the GI50 [19] was 6.93 µM and the TGI [19] was 26.1 µM. For the same molecule, the GI50 [21] was 2.18 µM, the TGI [21] was 4.99 µM and the GI50 [22] was 1.73 µM. For the same molecule, the TGI [22] was 7.82 µM, the GI50 [23] was 12 µM and the TGI [23] was 26.5 µM. The GI50 [24] was 5.68 µM, the TGI [24] was 18.3 µM and the GI50 [25] was 7.4 µM. The TGI [25] was 20.9 µM, the GI50 [26] was 18.4 µM and the TGI [26] was 35.8 µM. It also gave a GI50 [27] of 15.4 µM, a TGI [27] of 28.7 µM and a GI50 [56] of 9.11 µM. For the same molecule, the TGI [56] was 33.6 µM, the GI50 [29] was 22.9 µM and the TGI [29] was 48.9 µM. For the same molecule, the GI50 [30] was 19.6 µM, the TGI [30] was 67.1 µM and the GI50 [31] was 15.2 µM. It also gave a TGI [31] of 28.5 µM, a GI50 [32] of 7.1 µM and a TGI [32] of 19.1 µM. For the same molecule, the GI50 [33] was 11.2 µM, the TGI [33] was 23.7 µM and the GI50 [35] was 50.4 µM. It also gave a TGI [35] of over 100 µM, a GI50 [36] of 1.59 µM and a TGI [36] of 4.23 µM. The GI50 [37] was 21.3 µM, the TGI [37] was 47.9 µM and the GI50 [38] was 19.1 µM. It also gave a TGI [38] of 51.6 µM, a GI50 [39] of 1.48 µM and a TGI [39] of 4.43 µM. It also gave a GI50 [40] of 5.61 µM, a TGI [40] of 21 µM and a GI50 [41] of 15.8 µM. For the same molecule, the TGI [41] was 33.7 µM, the GI50 [43] was 12.6 µM and the TGI [43] was 25.2 µM. It also gave a GI50 [45] of 19.7 µM, a TGI [45] of 40.6 µM and a GI50 [46] of 12.5 µM. For the same molecule, the TGI [46] was 27.7 µM, the GI50 [47] was 20.9 µM and the TGI [47] was 49.7 µM. For the same molecule, the GI50 [48] was 2.55 µM, the TGI [48] was 5.42 µM and the GI50 [49] was 30.4 µM. The TGI [49] was 68.7 µM, the GI50 [51] was 47 µM and the TGI [51] was 84.5 µM. For the same molecule, the GI50 [52] was 4.29 µM, the TGI [52] was over 100 µM and the GI50 [57] was 12.7 µM. For the same molecule, the TGI [57] was 25.2 µM, the GI50 [54] was 5.68 µM and the TGI [54] was 21.3 µM.
